According to patent US7358359B2, “Antibacterial agents” (University of Washington, priority 2003, dated 2008):
Values after ≈ are worked out from the molar mass of the structure shown. Where two headings read alike, the source gives them in different places.

Columns and labels:
[1] = tested on: Serratia marcescens; experiment: MIC vs enteric organisms: Serratia marcescens; assay type: cell-based; settings: S. marc., MIC key class
Method: (§1) Bacterial isolates were cultivated from −70° C. frozen stocks by two consecutive overnight passages at 35° C. in ambient air on 5% blood agar (Remel, Lenexa, Kans.). Clinical isolates tested were from a collection composed of isolates collected during clinical trials and recent clinical isolates obtained from various geographically diverse hospitals in the US. Quality control and primary panel strains were from the American Type Culture Collection (ATCC; Rockville, Md.), with the exception of P. aeruginosa PAO200, a strain with a deletion of the mexABoprM genes that was received from Dr. H. Schweizer.
(§2) Minimum Inhibitory Concentrations (MICs) were determined by the broth microdilution method in accordance with the National Committee for Clinical Laboratory Standards (NCCLS) guidelines. In brief, organism suspensions were are adjusted to a 0.5 McFarland standard to yield a final inoculum between 3×10^5 and 7×10^5 colony-forming units (CFU)/mL. Drug dilutions and inocula were made in sterile, cation adjusted Mueller-Hinton Broth (Remel). An inoculum volume of 100 μl was added to wells containing 100 μl of broth with 2-fold serial dilutions of drug. All inoculated microdilution trays were incubated in ambient air at 35° C. for 18-24 hours. Following incubation, the lowest concentration of the drug that prevented visible growth was recorded as the MIC.

[2] = tested on: Alcaligenes xylosoxidans; experiment: MIC vs non-fermenting organisms: Alcaligenes xylosoxidans; assay type: cell-based; settings: Achromobacter xylosoxidans; Alcal. xyl; MIC key class
Method: as §1, §2

[3] = tested on: Burkholderia cepacia; experiment: MIC vs non-fermenting organisms: Burkholderia cepacia; assay type: cell-based; settings: Burkholderia cepacia, B. cepacia; MIC key class; read-out: MIC
Method: as §1, §2

[4] = tested on: Pseudomonas aeruginosa cystic fibrosis isolate 1145; experiment: microbe, parasite or virus in culture; assay type: cell-based; settings: strain 1145, MDR, LpxC inhibitors, MIC key class, read-out: MIC
Method: as §1, §2

[5] = tested on: Pseudomonas aeruginosa cystic fibrosis isolate 3206; experiment: microbe, parasite or virus in culture; assay type: cell-based; settings: strain 3206, MDR, LpxC inhibitors, MIC key class, read-out: MIC
Method: as §1, §2

[6] = tested on: Klebsiella oxytoca; experiment: MIC vs enteric organisms: Klebsiella oxytoca; assay type: cell-based; settings: K. oxy., MIC key class
Method: as §1, §2

[7] = tested on: P. aeruginosa 27853; experiment: MIC broth microdilution, standard panel: P. aeruginosa 27853; assay type: cell-based; settings: Pseudomonas aeruginosa, standard panel of organisms
Method: as §1, with “Schweizer. […] Strain Z61 (ATCC 35151) is also hypersusceptible to antibacterials. It is thought that the hypersusceptibility of this strain is the result of increased permeability of its outer membrane (Angus B L et al, Antimicrobial Agents and Chemotherapy 1982 21,299-309: Outer membrane permeability in Pseudomonas aeruginosa: Comparison of a wild-type with an antibacterial-supersusceptible mutant).” for “Schweizer.”
as §2, with “MIC. Performance of the assay was monitored by the use of laboratory quality-control strains against tobramycin, that has a defined MIC spectrum, in accordance with NCCLS guidelines.” for “MIC.”

[8] = tested on: Stenotrophomonas maltophilia; experiment: MIC vs non-fermenting organisms: Stenotrophomonas maltophilia; assay type: cell-based; settings: Stenotrophomonas maltophilia, S. malt.; MIC key class; read-out: MIC
Method: as §1, §2

[9] = tested on: E. coli 25922; experiment: MIC broth microdilution, standard panel: E. coli 25922; assay type: cell-based; settings: Escherichia coli, standard panel of organisms
Method: as §1, with “Schweizer. […] Strain Z61 (ATCC 35151) is also hypersusceptible to antibacterials. It is thought that the hypersusceptibility of this strain is the result of increased permeability of its outer membrane (Angus B L et al, Antimicrobial Agents and Chemotherapy 1982 21,299-309: Outer membrane permeability in Pseudomonas aeruginosa: Comparison of a wild-type with an antibacterial-supersusceptible mutant).” for “Schweizer.”
as §2, with “MIC. Performance of the assay was monitored by the use of laboratory quality-control strains against tobramycin, that has a defined MIC spectrum, in accordance with NCCLS guidelines.” for “MIC.”

[10] = biological target: T1, P. aeruginosa LpxC (Pseudomonas aeruginosa, UniProt P47205); experiment: P. aeruginosa LpxC Inhibition Assay; assay type: biochemical
T1 sequence (P47205 1-303): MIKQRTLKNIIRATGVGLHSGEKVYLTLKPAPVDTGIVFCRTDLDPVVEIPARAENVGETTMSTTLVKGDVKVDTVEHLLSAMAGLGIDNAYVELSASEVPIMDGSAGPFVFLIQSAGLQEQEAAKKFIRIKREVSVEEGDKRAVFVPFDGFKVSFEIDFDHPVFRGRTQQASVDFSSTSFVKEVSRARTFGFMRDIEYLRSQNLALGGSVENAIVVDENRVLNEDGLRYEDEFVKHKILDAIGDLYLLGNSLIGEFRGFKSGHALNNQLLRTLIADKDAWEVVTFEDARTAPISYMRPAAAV
Method: The assay followed the general method of Hyland et al (Journal of Bacteriology 1997 179, 2029-2037: Cloning, expression and purification of UDP-3-O-acyl-GlcNAc deacetylase from Pseudomonas aeruginosa: a metalloamidase of the lipid A biosynthesis pathway) and the radiolabeling procedure is according to Kline et al. supra. Briefly, samples were incubated with 2 nM P. aeruginosa LpxC and 150 nM [3H-Ac]-UDP-3-OR-3-hydroxydecanoyl)-GlcNAc in a total volume of 50 uL for 90 min at room temperature. Reactions were carried out in 96-well polypropylene plates in 50 mM sodium phosphate buffer, pH 7.5, containing 1 mg/mL BSA. Reactions were stopped by the addition of 180 uL of a 3% suspension of activated charcoal powder in 100 mM sodium acetate, pH 7.5. Supernatants were clarified by centrifugation. A portion of the clarified supernatant, containing the enzymatically released [3H]-acetate, was transferred to opaque white 96-well plates containing scintillation fluid. The radioactivity was measured in a Perkin-Elmer/Wallac Trilux Microbeta counter.

[11] = tested on: Enterobacter aerogenes; experiment: MIC vs enteric organisms: Enterobacter aerogenes; assay type: cell-based; settings: Klebsiella aerogenes; E. aer.; MIC key class
Method: as §1, §2

[12] = tested on: Pseudomonas aeruginosa cystic fibrosis isolate 3198; experiment: MIC vs cystic fibrosis isolate of P. aeruginosa 3198 (sensitive to most antibacterials); assay type: cell-based; settings: strain 3198, Sensitive, LpxC inhibitors, MIC key class
Method: as §1, §2

[13] = tested on: Pseudomonas aeruginosa cystic fibrosis isolate 3317; experiment: MIC vs cystic fibrosis isolate of P. aeruginosa 3317 (resistant to aztreonam); assay type: cell-based; settings: strain 3317, Aztr. R, LpxC inhibitors, MIC key class
Method: as §1, §2

[14] = tested on: Pseudomonas aeruginosa cystic fibrosis isolate 3224; experiment: MIC vs cystic fibrosis isolate of P. aeruginosa 3224; assay type: cell-based; settings: strain 3224, Tobra R, LpxC inhibitors, MIC key class
Method: as §1, §2

[15] = tested on: Proteus mirabilis; experiment: MIC vs enteric organisms: Proteus mirabilis; assay type: cell-based; settings: P. mir., MIC key class
Method: as §1, §2

[16] = 2 nM P. aeruginosa LpxC, 90 min, room temperature, read-out: IC50 (nM), Enzyme inhibitory activity

Row | SMILES | MIC [1] [mg/L] | MIC [2] [mg/L] | MIC [3] [mg/L] | MIC [4] [mg/L] | MIC [5] [mg/L] | MIC [6] [mg/L] | MIC [7] [mg/L] | MIC [8] [mg/L] | MIC [9] [mg/L] | IC50 [10, 16] [nM] | MIC [11] [mg/L] | MIC [12] [mg/L] | MIC [13] [mg/L] | MIC [14] [mg/L] | MIC [15] [mg/L] | IC50 [10] [nM]
1 | CCc1ccc(-c2ccc(C(=O)N[C@@H](CN)C(=O)NO)cc2)cc1 [Example 280, N-[(1S)-1-(aminomethyl)-2-(hydroxyamino)-2-oxoethyl]-4′-ethyl-1,1-biphenyl-4-carboxamide] | 6.25 to 50 (≈ 19.1 to 153 µM) | 6.25 to 50 (≈ 19.1 to 153 µM) | 6.25 to 50 (≈ 19.1 to 153 µM) | < 6.25 | < 6.25 | > 50 | < 6.25 | 6.25 to 50 (≈ 19.1 to 153 µM) | < 6.25 | < 100 | > 50 | < 6.25 | < 6.25 | < 6.25 | 6.25 to 50 (≈ 19.1 to 153 µM) | –
2 | C[C@@H](O)[C@H](NC(=O)c1ccc(C#CC#Cc2ccccc2)cc1)C(=O)NO [Example 19, N-(1-(N-hydroxycarbamoyl)(1S,2R)-2-hydroxypropyl)[4-(4-phenylbuta-1,3-diynyl)phenyl]carboxamide] | < 6.25 | 6.25 to 50 (≈ 17.2 to 138 µM) | 6.25 to 50 (≈ 17.2 to 138 µM) | < 6.25 | < 6.25 | < 6.25 | < 6.25 | 6.25 to 50 (≈ 17.2 to 138 µM) | < 6.25 | – | < 6.25 | < 6.25 | < 6.25 | < 6.25 | < 6.25 | < 100
3 | NC[C@H](NC(=O)c1ccc(C#CC#Cc2ccccc2)cc1)C(=O)NO [Example 481, N-[(1S)-1-(aminomethyl)-2-(hydroxyamino)-2-oxoethyl]-4-(4-phenylbuta-1,3-diynyl)benzamide] | < 6.25 | > 50 | 6.25 to 50 (≈ 18 to 144 µM) | < 6.25 | < 6.25 | < 6.25 | < 6.25 | > 50 | < 6.25 | < 100 | > 50 | < 6.25 | < 6.25 | < 6.25 | < 6.25 | –
4 | C[C@@H](O)[C@H](NC(=O)c1ccc(-c2ccc(Br)cc2)cc1)C(=O)NO [Example 315, 4′-bromo-N-{(1S,2R)-2-hydroxy-1-[(hydroxyamino)carbonyl]propyl}-1,1′-biphenyl-4-carboxamide] | 6.25 to 50 (≈ 15.9 to 127 µM) | 6.25 to 50 (≈ 15.9 to 127 µM) | < 6.25 | < 6.25 | < 6.25 | > 50 | < 6.25 | < 6.25 | < 6.25 | < 100 | > 50 | < 6.25 | < 6.25 | < 6.25 | > 50 | –
5 | CCc1ccc(-c2ccc(C(=O)N[C@H](C(=O)NO)[C@@H](C)N)cc2)cc1 [Example 779, N-{(1S,2R)-2-amino-1-[(hydroxyamino)carbonyl]propyl)-4′-ethyl-1,1′-biphenyl-4-carboxamide] | < 6.25 | < 6.25 | < 6.25 | < 6.25 | < 6.25 | 6.25 to 50 (≈ 18.3 to 146 µM) | < 6.25 | 6.25 to 50 (≈ 18.3 to 146 µM) | < 6.25 | – | > 50 | < 6.25 | < 6.25 | < 6.25 | 6.25 to 50 (≈ 18.3 to 146 µM) | < 100
